Experimental data published in PubChem BioAssay AID2060908 (Molecular Pharmacology Branch, DTP, NCI, 2025).

System: 186277-243-T-J2-PDC complex spheroids, viability
Experiment: Anticancer human tumor 186277-243-T-J2-PDC patient-derived colon adenocarcinoma cell line growth inhibition [RAS]
Conditions: for IC50: curve of first compound; for viability, T/C: stronger effect = lower value
Summary of the method: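 Multi-cell-type spheroids: tumor cells plus HUVEC endothelial cells and mesenchymal stem cells. RAS-pathway inhibitors were combined with targeted agents, each dosed in half-log steps down from clinical Cmax, or from 10 microM when Cmax was unknown.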

[1] = second compound 0.000949 µM, first compound 0.000949 µM
[2] = second compound 0.000949 µM, first compound 0.003 µM
[3] = second compound 0.000949 µM, first compound 0.00949 µM
[4] = second compound 0.000949 µM, first compound 0.03 µM
[5] = second compound 0.000949 µM, first compound 0.0949 µM
[6] = second compound 0.000949 µM, first compound 0.3 µM
[7] = second compound 0.003 µM, first compound 0.000949 µM
[8] = second compound 0.003 µM, first compound 0.003 µM
[9] = second compound 0.003 µM, first compound 0.00949 µM
[10] = second compound 0.003 µM, first compound 0.03 µM
[11] = second compound 0.003 µM, first compound 0.0949 µM
[12] = second compound 0.003 µM, first compound 0.3 µM
[13] = second compound 0.00949 µM, first compound 0.000949 µM
[14] = second compound 0.00949 µM, first compound 0.003 µM
[15] = second compound 0.00949 µM, first compound 0.00949 µM
[16] = second compound 0.00949 µM, first compound 0.03 µM
[17] = second compound 0.00949 µM, first compound 0.0949 µM
[18] = second compound 0.00949 µM, first compound 0.3 µM
[19] = second compound 0.03 µM, first compound 0.000949 µM
[20] = second compound 0.03 µM, first compound 0.003 µM
[21] = second compound 0.03 µM, first compound 0.00949 µM
[22] = second compound 0.03 µM, first compound 0.03 µM
[23] = second compound 0.03 µM, first compound 0.0949 µM
[24] = second compound 0.03 µM, first compound 0.3 µM
[25] = second compound 0.0949 µM, first compound 0.000949 µM
[26] = second compound 0.0949 µM, first compound 0.003 µM
[27] = second compound 0.0949 µM, first compound 0.00949 µM
[28] = second compound 0.0949 µM, first compound 0.03 µM
[29] = second compound 0.0949 µM, first compound 0.0949 µM
[30] = second compound 0.0949 µM, first compound 0.3 µM
[31] = second compound 0.3 µM, first compound 0.000949 µM
[32] = second compound 0.3 µM, first compound 0.003 µM
[33] = second compound 0.3 µM, first compound 0.00949 µM
[34] = second compound 0.3 µM, first compound 0.03 µM
[35] = second compound 0.3 µM, first compound 0.0949 µM
[36] = second compound 0.3 µM, first compound 0.3 µM
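Note: spheroids exposed to compounds for 7 days before viability read.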

C=CC(=O)N1CCN(c2nc(OCC3CCCN3C)nc3c(F)c(-c4nc(N)cc(C)c4C(F)(F)F)c(Cl)cc23)C(C)C1 (stereo unspecified) + CCn1c(-c2cc(N3CCN(C)CC3)cnc2C(C)OC)c2c3cc(ccc31)-c1csc(n1)CC(NC(=O)C1CC1C)C(=O)N1CCCC(N1)C(=O)OCC(C)(C)C2
IC50 (second compound 0.000949 µM): > 1000 nM | IC50 (second compound 0.003 µM): > 1000 nM | IC50 (second compound 0.00949 µM): < 3.16 nM | IC50 (second compound 0.03 µM): < 3.16 nM | IC50 (second compound 0.0949 µM): < 3.16 nM | IC50 (second compound 0.3 µM): < 3.16 nM | viability, T/C (second compound 0.000949 µM, first compound 0.00316 µM): 100% | viability, T/C (second compound 0.000949 µM, first compound 0.01 µM): 95.3% | viability, T/C (second compound 0.000949 µM, first compound 0.0316 µM): 97.8% | viability, T/C (second compound 0.000949 µM, first compound 0.1 µM): 82% | viability, T/C (second compound 0.000949 µM, first compound 0.316 µM): 96% | viability, T/C (second compound 0.000949 µM, first compound 1 µM): 95.7% | viability, T/C (second compound 0.003 µM, first compound 0.00316 µM): 93.8% | viability, T/C (second compound 0.003 µM, first compound 0.01 µM): 79% | viability, T/C (second compound 0.003 µM, first compound 0.0316 µM): 74.8% | viability, T/C (second compound 0.003 µM, first compound 0.1 µM): 100% | viability, T/C (second compound 0.003 µM, first compound 0.316 µM): 90.7% | viability, T/C (second compound 0.003 µM, first compound 1 µM): 91.3% | viability, T/C (second compound 0.00949 µM, first compound 0.00316 µM): 50.9% | viability, T/C (second compound 0.00949 µM, first compound 0.01 µM): 43.2% | viability, T/C (second compound 0.00949 µM, first compound 0.0316 µM): 45.5% | viability, T/C (second compound 0.00949 µM, first compound 0.1 µM): 47% | viability, T/C (second compound 0.00949 µM, first compound 0.316 µM): 49.9% | viability, T/C (second compound 0.00949 µM, first compound 1 µM): 42.9% | viability, T/C (second compound 0.03 µM, first compound 0.00316 µM): 15.2% | viability, T/C (second compound 0.03 µM, first compound 0.01 µM): 15.7% | viability, T/C (second compound 0.03 µM, first compound 0.0316 µM): 14% | viability, T/C (second compound 0.03 µM, first compound 0.1 µM): 15.6% | viability, T/C (second compound 0.03 µM, first compound 0.316 µM): 16.7% | viability, T/C (second compound 0.03 µM, first compound 1 µM): 13.9% | viability, T/C (second compound 0.0949 µM, first compound 0.00316 µM): 7.43% | viability, T/C (second compound 0.0949 µM, first compound 0.01 µM): 6.42% | viability, T/C (second compound 0.0949 µM, first compound 0.0316 µM): 6.99% | viability, T/C (second compound 0.0949 µM, first compound 0.1 µM): 6.92% | viability, T/C (second compound 0.0949 µM, first compound 0.316 µM): 7.72% | viability, T/C (second compound 0.0949 µM, first compound 1 µM): 6.75% | viability, T/C (second compound 0.3 µM, first compound 0.00316 µM): 6.06% | viability, T/C (second compound 0.3 µM, first compound 0.01 µM): 5.29% | viability, T/C (second compound 0.3 µM, first compound 0.0316 µM): 6.03% | viability, T/C (second compound 0.3 µM, first compound 0.1 µM): 5.77% | viability, T/C (second compound 0.3 µM, first compound 0.316 µM): 6.02% | viability, T/C (second compound 0.3 µM, first compound 1 µM): 5.32%

CC1(C)CCC(Nc2ncc(C(F)(F)F)c(-c3c[nH]c4c(P(C)(C)=O)c(C#N)ccc34)n2)CN1 (stereo unspecified) + CCn1c(-c2cc(N3CCN(C)CC3)cnc2C(C)OC)c2c3cc(ccc31)-c1csc(n1)CC(NC(=O)C1CC1C)C(=O)N1CCCC(N1)C(=O)OCC(C)(C)C2
IC50 (second compound 0.000949 µM): 95.3 nM | IC50 (second compound 0.003 µM): 44.3 nM | IC50 (second compound 0.00949 µM): < 0.949 nM | IC50 (second compound 0.03 µM): < 0.949 nM | IC50 (second compound 0.0949 µM): < 0.949 nM | IC50 (second compound 0.3 µM): < 0.949 nM | viability, T/C [1]: 103% | viability, T/C [2]: 104% | viability, T/C [3]: 88% | viability, T/C [4]: 68.5% | viability, T/C [5]: 49.8% | viability, T/C [6]: 43.3% | viability, T/C [7]: 96.8% | viability, T/C [8]: 80.2% | viability, T/C [9]: 82.1% | viability, T/C [10]: 55.1% | viability, T/C [11]: 37.4% | viability, T/C [12]: 31.4% | viability, T/C [13]: 48.1% | viability, T/C [14]: 42.9% | viability, T/C [15]: 31.9% | viability, T/C [16]: 22.6% | viability, T/C [17]: 18.2% | viability, T/C [18]: 18.2% | viability, T/C [19]: 14.1% | viability, T/C [20]: 14% | viability, T/C [21]: 10.6% | viability, T/C [22]: 9.74% | viability, T/C [23]: 10.6% | viability, T/C [24]: 8.92% | viability, T/C [25]: 7.13% | viability, T/C [26]: 6.88% | viability, T/C [27]: 5.95% | viability, T/C [28]: 5.82% | viability, T/C [29]: 6.47% | viability, T/C [30]: 5.47% | viability, T/C [31]: 5.71% | viability, T/C [32]: 5.48% | viability, T/C [33]: 4.65% | viability, T/C [34]: 4.88% | viability, T/C [35]: 4.85% | viability, T/C [36]: 4.54%

CCc1c2c(nc3ccc(O)cc13)-c1cc3c(c(=O)n1C2)COC(=O)[C@]3(O)CC + CCn1c(-c2cc(N3CCN(C)CC3)cnc2C(C)OC)c2c3cc(ccc31)-c1csc(n1)CC(NC(=O)C1CC1C)C(=O)N1CCCC(N1)C(=O)OCC(C)(C)C2
IC50 (second compound 0.000949 µM): 5.27 nM | IC50 (second compound 0.003 µM): 1.96 nM | IC50 (second compound 0.00949 µM): < 0.949 nM | IC50 (second compound 0.03 µM): < 0.949 nM | IC50 (second compound 0.0949 µM): < 0.949 nM | IC50 (second compound 0.3 µM): < 0.949 nM | viability, T/C [1]: 113% | viability, T/C [2]: 58.7% | viability, T/C [3]: 39.5% | viability, T/C [4]: 23.4% | viability, T/C [5]: 9.6% | viability, T/C [6]: 6.83% | viability, T/C [7]: 69.5% | viability, T/C [8]: 37.6% | viability, T/C [9]: 22.2% | viability, T/C [10]: 13.2% | viability, T/C [11]: 5.72% | viability, T/C [12]: 4.11% | viability, T/C [13]: 18.6% | viability, T/C [14]: 10.9% | viability, T/C [15]: 9.28% | viability, T/C [16]: 6.45% | viability, T/C [17]: 3.6% | viability, T/C [18]: 2.17% | viability, T/C [19]: 9.49% | viability, T/C [20]: 6.27% | viability, T/C [21]: 5.72% | viability, T/C [22]: 4.05% | viability, T/C [23]: 2.52% | viability, T/C [24]: 1.56% | viability, T/C [25]: 5.21% | viability, T/C [26]: 4.44% | viability, T/C [27]: 4.37% | viability, T/C [28]: 2.94% | viability, T/C [29]: 2.29% | viability, T/C [30]: 1.3% | viability, T/C [31]: 4.39% | viability, T/C [32]: 3.92% | viability, T/C [33]: 3.85% | viability, T/C [34]: 2.91% | viability, T/C [35]: 2.37% | viability, T/C [36]: 1.27%
